In PubChem BioAssay (NCI):
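Growth conditions: 96-well plates. Treatment: test compound, 48 hours, 5 concentrations. Analysis: linear interpolation between bracketing concentrations; unreached endpoints set to highest concentration. GI50 is the concentration that inhibits growth by half. The concentration for full growth arrest is given as TGI.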

Assays:
Test in all cases: growth of human tumour cells (NCI), 48 h
NCI-H522 lung = test system: NCI-H522 lung
NCI/ADR-RES ovarian = test system: NCI/ADR-RES ovarian
EKVX NSCLC = test system: EKVX NSCLC
CCRF-CEM leukemia = test system: CCRF-CEM leukemia
SK-OV-3 ovarian = test system: SK-OV-3 ovarian
OVCAR-4 ovarian = test system: OVCAR-4 ovarian
MCF7 breast = test system: MCF7 breast
HOP-62 NSCLC = test system: HOP-62 NSCLC
NCI-H226 lung = test system: NCI-H226 lung
SNB-19 CNS = test system: SNB-19 CNS
HT29 colon = test system: HT29 colon
KM12 colon = test system: KM12 colon
SNB-75 CNS = test system: SNB-75 CNS
IGROV1 ovarian = test system: IGROV1 ovarian
RXF 393 renal = test system: RXF 393 renal
COLO 205 colon = test system: COLO 205 colon
MDA-MB-231 breast = test system: MDA-MB-231 breast
SF-295 CNS = test system: SF-295 CNS
HOP-92 NSCLC = test system: HOP-92 NSCLC
SW-620 colon = test system: SW-620 colon
HS 578T breast = test system: HS 578T breast
MALME-3M melanoma = test system: MALME-3M melanoma
NCI-H23 lung = test system: NCI-H23 lung
OVCAR-8 ovarian = test system: OVCAR-8 ovarian
A549 NSCLC = test system: A549 NSCLC
MDA-MB-435 = test system: MDA-MB-435
NCI-H460 lung = test system: NCI-H460 lung
SK-MEL-2 melanoma = test system: SK-MEL-2 melanoma
OVCAR-3 ovarian = test system: OVCAR-3 ovarian
PC-3 prostate = test system: PC-3 prostate
M14 melanoma = test system: M14 melanoma
DU-145 prostate = test system: DU-145 prostate
SN12C renal = test system: SN12C renal
SK-MEL-5 melanoma = test system: SK-MEL-5 melanoma
SK-MEL-28 melanoma = test system: SK-MEL-28 melanoma
MOLT-4 leukemia = test system: MOLT-4 leukemia
T-47D breast = test system: T-47D breast
SF-539 CNS = test system: SF-539 CNS
UACC-257 melanoma = test system: UACC-257 melanoma
RPMI-8226 leukemia = test system: RPMI-8226 leukemia
786-0 renal = test system: 786-0 renal
UO-31 renal = test system: UO-31 renal
HCC-2998 colon = test system: HCC-2998 colon
ACHN renal = test system: ACHN renal
U251 CNS = test system: U251 CNS
OVCAR-5 ovarian = test system: OVCAR-5 ovarian
K-562 leukemia = test system: K-562 leukemia
UACC-62 melanoma = test system: UACC-62 melanoma
BT-549 breast = test system: BT-549 breast
HL-60(TB) leukemia = test system: HL-60(TB) leukemia
HCT-15 colon = test system: HCT-15 colon
SF-268 CNS = test system: SF-268 CNS
LOX IMVI melanoma = test system: LOX IMVI melanoma
TK-10 renal = test system: TK-10 renal
A498 renal = test system: A498 renal
CAKI-1 renal = test system: CAKI-1 renal
HCT-116 colon = test system: HCT-116 colon

CC(C)(C)OC(=O)NCCCCCCCCCn1c2c(c3ccccc3c1=O)C(=O)c1ccccc1-2
GI50 (NCI-H522 lung): 44.9 µM
TGI (NCI-H522 lung): > 100 µM
GI50 (NCI/ADR-RES ovarian): 43.5 µM
TGI (NCI/ADR-RES ovarian): > 100 µM
GI50 (EKVX NSCLC): 49.2 µM
TGI (EKVX NSCLC): > 100 µM
GI50 (CCRF-CEM leukemia): > 100 µM
TGI (CCRF-CEM leukemia): > 100 µM
GI50 (SK-OV-3 ovarian): 23.6 µM
TGI (SK-OV-3 ovarian): 78.3 µM
GI50 (OVCAR-4 ovarian): > 100 µM
TGI (OVCAR-4 ovarian): > 100 µM
GI50 (MCF7 breast): 90 µM
TGI (MCF7 breast): > 100 µM
GI50 (HOP-62 NSCLC): 24.8 µM
TGI (HOP-62 NSCLC): 71.6 µM
GI50 (NCI-H226 lung): 41 µM
TGI (NCI-H226 lung): > 100 µM
GI50 (SNB-19 CNS): 28.2 µM
TGI (SNB-19 CNS): > 100 µM
GI50 (HT29 colon): > 100 µM
TGI (HT29 colon): > 100 µM
GI50 (KM12 colon): > 100 µM
TGI (KM12 colon): > 100 µM
GI50 (SNB-75 CNS): 11.2 µM
TGI (SNB-75 CNS): 36.8 µM
GI50 (IGROV1 ovarian): 36.1 µM
TGI (IGROV1 ovarian): > 100 µM
GI50 (RXF 393 renal): 20.5 µM
TGI (RXF 393 renal): > 100 µM
GI50 (COLO 205 colon): > 100 µM
TGI (COLO 205 colon): > 100 µM
GI50 (MDA-MB-231 breast): 31.7 µM
TGI (MDA-MB-231 breast): > 100 µM
GI50 (SF-295 CNS): 24.8 µM
TGI (SF-295 CNS): > 100 µM
GI50 (HOP-92 NSCLC): 14.6 µM
TGI (HOP-92 NSCLC): 41.6 µM
GI50 (SW-620 colon): > 100 µM
TGI (SW-620 colon): > 100 µM
GI50 (HS 578T breast): 14.2 µM
TGI (HS 578T breast): 43.6 µM
GI50 (MALME-3M melanoma): 13.9 µM
TGI (MALME-3M melanoma): 43 µM
GI50 (NCI-H23 lung): 37 µM
TGI (NCI-H23 lung): > 100 µM
GI50 (OVCAR-8 ovarian): 56.1 µM
TGI (OVCAR-8 ovarian): > 100 µM
GI50 (A549 NSCLC): > 100 µM
TGI (A549 NSCLC): > 100 µM
GI50 (MDA-MB-435): > 100 µM
TGI (MDA-MB-435): > 100 µM
GI50 (NCI-H460 lung): > 100 µM
TGI (NCI-H460 lung): > 100 µM
GI50 (SK-MEL-2 melanoma): 27.9 µM
TGI (SK-MEL-2 melanoma): 71.1 µM
GI50 (OVCAR-3 ovarian): 29.2 µM
TGI (OVCAR-3 ovarian): > 100 µM
GI50 (PC-3 prostate): > 100 µM
TGI (PC-3 prostate): > 100 µM
GI50 (M14 melanoma): > 100 µM
TGI (M14 melanoma): > 100 µM
GI50 (DU-145 prostate): > 100 µM
TGI (DU-145 prostate): > 100 µM
GI50 (SN12C renal): 76.8 µM
TGI (SN12C renal): > 100 µM
GI50 (SK-MEL-5 melanoma): > 100 µM
TGI (SK-MEL-5 melanoma): > 100 µM
GI50 (SK-MEL-28 melanoma): > 100 µM
TGI (SK-MEL-28 melanoma): > 100 µM
GI50 (MOLT-4 leukemia): > 100 µM
TGI (MOLT-4 leukemia): > 100 µM
GI50 (T-47D breast): 78.9 µM
TGI (T-47D breast): > 100 µM
GI50 (SF-539 CNS): 18 µM
TGI (SF-539 CNS): 52.8 µM
GI50 (UACC-257 melanoma): > 100 µM
TGI (UACC-257 melanoma): > 100 µM
GI50 (RPMI-8226 leukemia): > 100 µM
TGI (RPMI-8226 leukemia): > 100 µM
GI50 (786-0 renal): 17.5 µM
TGI (786-0 renal): 76.9 µM
GI50 (UO-31 renal): > 100 µM
TGI (UO-31 renal): > 100 µM
GI50 (HCC-2998 colon): > 100 µM
TGI (HCC-2998 colon): > 100 µM
GI50 (ACHN renal): 27 µM
TGI (ACHN renal): > 100 µM
GI50 (U251 CNS): 22 µM
TGI (U251 CNS): > 100 µM
GI50 (OVCAR-5 ovarian): > 100 µM
TGI (OVCAR-5 ovarian): > 100 µM
GI50 (K-562 leukemia): > 100 µM
TGI (K-562 leukemia): > 100 µM
GI50 (UACC-62 melanoma): 17.3 µM
TGI (UACC-62 melanoma): 40.7 µM
GI50 (BT-549 breast): 35.1 µM
TGI (BT-549 breast): > 100 µM
GI50 (HL-60(TB) leukemia): > 100 µM
TGI (HL-60(TB) leukemia): > 100 µM
GI50 (HCT-15 colon): > 100 µM
TGI (HCT-15 colon): > 100 µM
GI50 (SF-268 CNS): 32.6 µM
TGI (SF-268 CNS): > 100 µM
GI50 (LOX IMVI melanoma): 76.3 µM
TGI (LOX IMVI melanoma): > 100 µM
GI50 (TK-10 renal): 17.4 µM
TGI (TK-10 renal): 45.8 µM

Cc1cn2c(/C=N/N=C(N)N)c(-c3cc([N+](=O)[O-])c(Cl)cc3Cl)nc2s1
TGI (NCI/ADR-RES ovarian): > 100 µM
TGI (COLO 205 colon): > 100 µM
TGI (A549 NSCLC): > 100 µM
TGI (UO-31 renal): 3.74 µM

Cc1cn(S(=O)(=O)c2ccccc2)c2c(OCc3ccccc3)cc([N+](=O)[O-])cc12
TGI (NCI-H522 lung): > 100 µM
TGI (NCI/ADR-RES ovarian): > 100 µM
TGI (EKVX NSCLC): > 100 µM
TGI (CCRF-CEM leukemia): > 100 µM
TGI (SK-OV-3 ovarian): > 100 µM
TGI (OVCAR-4 ovarian): > 100 µM
TGI (A498 renal): > 100 µM
TGI (MCF7 breast): > 100 µM
TGI (NCI-H226 lung): > 100 µM
TGI (CAKI-1 renal): > 100 µM
TGI (SNB-19 CNS): > 100 µM
TGI (HT29 colon): > 100 µM
TGI (KM12 colon): > 100 µM
TGI (SNB-75 CNS): > 100 µM
TGI (IGROV1 ovarian): > 100 µM
TGI (RXF 393 renal): > 100 µM
TGI (COLO 205 colon): > 100 µM
TGI (MDA-MB-231 breast): > 100 µM
TGI (SF-295 CNS): > 100 µM
TGI (HOP-92 NSCLC): > 100 µM
TGI (SW-620 colon): > 100 µM
TGI (HS 578T breast): > 100 µM
TGI (MALME-3M melanoma): > 100 µM
TGI (NCI-H23 lung): > 100 µM
TGI (OVCAR-8 ovarian): > 100 µM
TGI (A549 NSCLC): > 100 µM
TGI (MDA-MB-435): > 100 µM
TGI (NCI-H460 lung): > 100 µM
TGI (SK-MEL-2 melanoma): > 100 µM
TGI (OVCAR-3 ovarian): > 100 µM
TGI (PC-3 prostate): > 100 µM
TGI (M14 melanoma): > 100 µM
TGI (DU-145 prostate): > 100 µM
TGI (SN12C renal): > 100 µM
TGI (SK-MEL-5 melanoma): > 100 µM
TGI (SK-MEL-28 melanoma): > 100 µM
TGI (MOLT-4 leukemia): > 100 µM
TGI (T-47D breast): > 100 µM
TGI (SF-539 CNS): > 100 µM
TGI (UACC-257 melanoma): > 100 µM
TGI (RPMI-8226 leukemia): > 100 µM
TGI (786-0 renal): > 100 µM
TGI (UO-31 renal): > 100 µM
TGI (HCC-2998 colon): > 100 µM
TGI (ACHN renal): > 100 µM
TGI (U251 CNS): > 100 µM
TGI (OVCAR-5 ovarian): > 100 µM
TGI (K-562 leukemia): > 100 µM
TGI (UACC-62 melanoma): > 100 µM
TGI (BT-549 breast): > 100 µM
TGI (HL-60(TB) leukemia): > 100 µM
TGI (HCT-15 colon): > 100 µM
TGI (SF-268 CNS): > 100 µM
TGI (HCT-116 colon): > 100 µM
TGI (LOX IMVI melanoma): > 100 µM
TGI (TK-10 renal): > 100 µM

CCc1cn2c(/C=N/N=C(N)N)c(-c3cc(C)c(Cl)cc3Cl)nc2s1
TGI (NCI/ADR-RES ovarian): 24.8 µM
TGI (SK-OV-3 ovarian): 3.56 µM
TGI (OVCAR-4 ovarian): 2.78 µM
TGI (A498 renal): 3.75 µM
TGI (HT29 colon): 2.45 µM
TGI (SNB-75 CNS): 2.88 µM
TGI (COLO 205 colon): 3.61 µM
TGI (MDA-MB-231 breast): 2.12 µM
TGI (NCI-H23 lung): 3.16 µM
TGI (MDA-MB-435): 2.76 µM
TGI (DU-145 prostate): 3 µM
TGI (SK-MEL-5 melanoma): 2.99 µM
TGI (SK-MEL-28 melanoma): 2.82 µM
TGI (SF-539 CNS): 3.11 µM
TGI (ACHN renal): 3.04 µM
TGI (OVCAR-5 ovarian): 2.96 µM
TGI (UACC-62 melanoma): 2.72 µM
TGI (BT-549 breast): 3.2 µM
TGI (HCT-15 colon): 2.97 µM
TGI (TK-10 renal): 3.46 µM
